{"source": "paper PMC2033546", "about": "“Effects of somatostatin analogue RC-160 and bombesin/gastrin-releasing peptide antagonists on the growth of human small-cell and non-small-cell lung carcinomas in nude mice” (British Journal of Cancer, 1994)", "key": {"[1]": {"test_system": "IGF-I receptors in membranes of non-SCLC H157 tumours", "assay": "IGF-I receptor binding on H157 tumour membranes after in vivo treatment", "set-up": "species or system human", "excerpt": "(§1) Br. J. Cancer (1994). 70, 886 892 ? Macmillan Press Ltd.. […] Bombesin GRP antagonists. […] Lung carcinoma is the leading cause of cancer-related deaths in the western world. It is estimated that in 1992 there were approximately 168,000 new cases of lung cancer in the US and that about 146,000 deaths occurred from this disease (Boring et al., 1992). […] The growth factors such as bombesin/gastrin-releasing pep- tide (GRP), epidermal growth factor, (EGF), transforming growth factor a (TGF-x) and insulin-like growth factor I(IGF-I) appear to play a role in the proliferation and pro- gression of lung cancer (Cuttitta et al., 1985; Veale et al., 1987; Minuto et al., 1988; Siegfried & Owens, 1988; Macaulay et al., 1990; Tateishi et al., 1991; Damstrup et al., 1992; Sethi & Rozengurt, 1992; Rabiasz et al., 1992; Moody & Cuttitta, 1993). […] Tpi is 2,3,4,9-tetrahydro- Correspondence: A.V. Schally (151). VA Medical Center, 1601 Per- dido Street. New Orleans, LA 70146. USA. Received 1 March 1994; and in revised form 5 July 1994. Br. J. Cancer (1994), 70, 886-892 C Macmillan Press Ltd., 1994 PEPTIDE ANALOGUES IN LUNG CANCER 8U7 lH-pyrido [3,4bjindol-3-carboxylic acid, a conformationally constrained secondary amine derivate of tryptophan and Tac is thiazolidine-4-carboxylic acid. […] Animals Male athymic NCr nulmu nude mice, approximately 6 weeks old on arrival, were obtained from the NCI (Bethesda, MD, USA) and maintained under pathogen-limited conditions. Cell lines The human SCLC cell line NCI-H69, was obtained from the American Type Cell Culture (ATCC), Rockville, MD, USA and the non-SCLC cell line NCI-H157, from Dr H. Oie, NCI-Navy Medical Oncology Branch, Bethesda, MD, USA. These cell lines were cultured in RPMI-1640 medium supple- mented with 4 mM L-glutamine, 50 units ml-I penicilln G sodium, SOigml-' streptomycin sulphate, 0.125pgml-' amphotericin B and 10% fetal bovine serum at 3TC in a humidified 95% air/5% carbon dioxide atmosphere. CeLs were passaged weekly and routinely monitored for myco- plasma contamination using a detection kit (Boehringer- Mannheim, Mannheim, Germany). All culture media com- ponents were purchased from Gibco (Grand Island, NY, USA). […] The number of mitotic and apoptotic cells per 1,000 cells was determined, and the percentage area of necrosis in tumour sections was examined using the point-counting method (Szepeshazi et al., 1991, 1992), in which the crossing points of an ocular net that coincide with necrosis in various sections are counted. Radiommunoassays Serum levels of growth hormone were determined by double- antibody radioimmunoassay (RIA) using materials supplied by the National Hormone and Pituitary Program of the National Institute of Diabetes and Digestive and Kidney Diseases (NIDDK)."}, "[2]": {"test_system": "Somatostatin receptors in membranes of SCLC H69 tumours", "assay": "Somatostatin receptor binding on H69 tumour membranes after in vivo treatment", "set-up": "species or system human", "excerpt": "as §1, with “USA). Receptor assays Preparation of membranes for receptor studies was described previously (Halmos et al., 1993). Iodinated EGF and IGF-I were purchased from Amersham (Arlington Heights, IL, USA). Radioiodination of other peptides and receptor bind- ing of EGF, IGF-I, somatostatin and bombesin/GRP were performed as previously described (Srkalovic et al., 1989; Szepeshazi et al., 1992). Complete displacement assays on tumour membranes were done only once because of the shortage of tumour material. The LIGAND PC computerised curve-fitting programme of Munson and Rodbard (1980) was used to determine the types of receptor binding, dissociation constant (Kd) values, and the maximal binding capacity (BDj) of receptors.” for “USA).”"}, "[3]": {"test_system": "LNCaP prostatic cancer cells", "settings": "LNCaP cells in culture; ref Gattani et al., 1990; cited from earlier work", "excerpt": "(§2) Br. J. Cancer (1994). 70, 886 892 ? Macmillan Press Ltd.."}, "[4]": {"test_system": "MIA PaCa-2 human pancreatic cancer cell line", "settings": "ref Liebow et al., 1989; cited from earlier work", "excerpt": "as §2"}}, "note": "Where no end group is shown, it is not given here. [ ]: non-standard residue; d: D form.", "data": [{"substance": "[dF]CY[dW]KVCW-NH2 (cysteine pairing not given here) [RC-160, Somatostatin analogue RC-160]", "values": [{"measurement": "IGF-I maximal binding capacity (Bmax)", "setting": "[1]; Table IV, Experiment II (non-SCLC H157), tumour membranes after in vivo treatment, control 257, done once", "value": 129, "unit": "fmol mg' protein"}, {"measurement": "IGF-I binding sites on H157 tumours (in words)", "setting": "[1]; after in vivo treatment", "value": "decreased"}, {"measurement": "Somatostatin maximal binding capacity (Bmax)", "setting": "[2]; Table IV, Experiment I (SCLC-H69), tumour membranes after in vivo treatment, control 450, done once", "value": 570, "unit": "fmol mg-'protein"}, {"measurement": "Binding capacity of receptors for somatostatin on H69 tumours (in words)", "setting": "[2]; after in vivo treatment", "value": "increased the binding capacity of receptors for somatostatin"}, {"measurement": "Effect on [3H]thymidine incorporation (in words)", "setting": "[3]", "value": "inhibitory effect"}, {"measurement": "Effect on EGF-stimulated cell growth (in words)", "setting": "[4]", "value": "reversed the stimulatory effect of EGF"}, {"measurement": "Effect on EGF-stimulated phosphorylation of the tyrosine kinase domain of the EGF receptors (in words)", "setting": "[4]", "value": "reversed the stimulatory effect of EGF"}]}]}
